Measured values reported in patent US7138361B2, “Herbicidal heterocycles” (E. I. du Pont de Nemours and Company, priority 2000, dated 2006).

How the values were obtained:
Assay type in all cases: in vivo
Sunflower = assay: Test C preemergence; conditions: Rate 125 g/ha, scale 0 to 100, 0 no effect, 100 complete control
Nightshade [1] = assay: Test C preemergence; conditions: Rate 250 g/ha, visual evaluation after 12 to 14 days
wild oat (Avena fatua) = assay: Test B postemergence; conditions: 13 to 15 days
In short: (§1)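 Post-treatment, species sat 13–15 days under greenhouse conditions before visual scoring against controls, 0 (no effect) through 100 (complete control). Application preemergence to sown seeds or postemergence at 1- to 4-leaf stage, using a non-phytotoxic solvent/surfactant formulation.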

corn (Zea mays) [2] = assay: Test B postemergence; conditions: 13 to 15 days
In short: as §1

[3] = test system: barnyardgrass (Echinochloa crus-galli); assay: Test B postemergence; conditions: 13 to 15 days
In short: as §1

[4] = test system: wheat (Triticum aestivum); assay: Test B postemergence; conditions: 13 to 15 days
In short: as §1

rice (Oryza saliva) = assay: Test C flooded paddy test; conditions: for Rice plant response rating: Flooded Paddy, scale 0 to 100, 0 no effect, 100 complete control; for Plant response rating, Rice: flooded paddy test, scale 0 to 100 (0 no effect, 100 complete control)
In short: (§2)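 Greenhouse-maintained for 12 to 14 days after treatment, the paddy plants (2-leaf stage at application) were scored visually against controls. A score of 0 denotes no effect and a score of 100 denotes complete control.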

[5] = test system: duck salad (Heteranthera limosa); assay: Test C flooded paddy test; conditions: for Ducksalad plant response rating: Flooded Paddy, scale 0 to 100, 0 no effect, 100 complete control; for Plant response rating, Ducksalad: flooded paddy test, scale 0 to 100 (0 no effect, 100 complete control)
In short: as §2

[6] = test system: barnyardgrass (Echinochloa crus-galli); assay: Test C flooded paddy test; conditions: for Barnyardgrass plant response rating: Flooded Paddy, scale 0 to 100, 0 no effect, 100 complete control; for Plant response rating, Barnyardgrass: flooded paddy test, scale 0 to 100 (0 no effect, 100 complete control)
In short: as §2

[7] = test system: smallflower flatsedge (Cyperus difformis); assay: Test C flooded paddy test; conditions: for Flatsedge plant response rating: Flooded Paddy, scale 0 to 100, 0 no effect, 100 complete control; for Plant response rating, Flatsedge: flooded paddy test, scale 0 to 100 (0 no effect, 100 complete control)
In short: as §2

[8] = test system: pigweed (Amaranthus retroflexus); assay: Test C preemergence
In short: (§3)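 Herbicidal effect is a visual 0–100 score (100 = complete control) assigned versus untreated plants, 12 to 14 days after spraying in the greenhouse. Test compounds were applied in a non-phytotoxic, surfactant-containing solvent.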

[9] = test system: lambsquarters (Chenopodium album); assay: Test C preemergence
In short: as §3

Nightshade [10] = assay: Test C preemergence
corn (Zea mays) [11] = assay: Test C preemergence
In short: as §3

soybean (Glycine max) = assay: Test C preemergence
In short: as §3

kochia (Kochia scoparia) = assay: Test C preemergence
In short: as §3

[12] = test system: yellow nutsedge (Cyperus esculentus); assay: Test C preemergence
In short: as §3

[13] = test system: woolly cupgrass (Eriochloa villosa); assay: Test C preemergence
In short: as §3

[14] = test system: johnsongrass (Sorghum halepense); assay: Test C preemergence
In short: as §3

[15] = Rate 125 g/ha, scale 0 (no effect) to 100 (complete control)
[16] = Rate 500 g/ha, scale 0 to 100, 0 is no effect, 100 is complete control
[17] = Preemergence, Rate 500 g/ha, scale 0 to 100
[18] = Rate 62 g/ha, scale 0 to 100, 0 no effect, 100 complete control
[19] = preemergence, Rate 250 g/ha, visual evaluation after 12 to 14 days
[20] = preemergence, Rate 125 g/ha, scale 0 to 100, 0 no effect, 100 complete control

O=C1C(n2ccc(C3CCCCC3)n2)SCN1c1cccc(OC(F)(F)F)c1 (stereo not drawn) [Compound 50]
Plant response rating, Sunflower (Sunflower): 30
Plant response rating (0 to 100), Nightshade (Nightshade [1]): 0
Plant response rating, Wild Oat (wild oat (Avena fatua); [15]): 0
Plant response rating, Wild Oat (wild oat (Avena fatua); [16]): 0
Plant response rating, Corn (corn (Zea mays) [2]; [15]): 0
Plant response rating, Corn (corn (Zea mays) [2]; [16]): 0
Plant response rating, Barnyardgrass [3, 15]: 0
Plant response rating, Barnyardgrass [3, 16]: 90
Plant response rating, Wheat [4, 15]: 0
Plant response rating, Wheat [4, 16]: 0
Rice plant response rating (rice (Oryza saliva); Rate 250 g/ha): 0
Rice plant response rating (rice (Oryza saliva); Rate 500 g/ha): 50
Plant response rating, Rice (rice (Oryza saliva); Rate 62 g/ha): 0
Plant response rating, Rice (rice (Oryza saliva); Rate 125 g/ha): 0
Ducksalad plant response rating ([5]; Rate 250 g/ha): 80
Ducksalad plant response rating ([5]; Rate 500 g/ha): 90
Plant response rating, Ducksalad ([5]; Rate 62 g/ha): 0
Plant response rating, Ducksalad ([5]; Rate 125 g/ha): 70
Barnyardgrass plant response rating ([6]; Rate 250 g/ha): 70
Barnyardgrass plant response rating ([6]; Rate 500 g/ha): 80
Plant response rating, Barnyardgrass ([6]; Rate 62 g/ha): 0
Plant response rating, Barnyardgrass ([6]; Rate 125 g/ha): 40
Flatsedge plant response rating ([7]; Rate 250 g/ha): 90
Flatsedge plant response rating ([7]; Rate 500 g/ha): 100
Plant response rating, Flatsedge ([7]; Rate 62 g/ha): 80
Plant response rating, Flatsedge ([7]; Rate 125 g/ha): 90
Plant response rating, Pigweed [8, 17]: 90
Plant response rating, Pigweed [8, 18]: 30
Plant response rating (0 to 100), Pigweed [8, 19]: 20
Plant response rating, Pigweed [8, 20]: 20
Plant response rating, Lambsquarters [9, 17]: 70
Plant response rating, Lambsquarters [9, 18]: 20
Plant response rating (0 to 100), Lambsquarters [9, 19]: 70
Plant response rating, Lambsquarters [9, 20]: 50
Plant response rating, Nightshade (Nightshade [10]; [18]): 0
Plant response rating, Nightshade (Nightshade [10]; Rate 125 g/ha, scale 0 to 100, 0 no effect, 100 complete control): 0
Plant response rating, Nightshade (Nightshade [10]; Rate 500 g/ha, scale 0 to 100): 60
Plant response rating, Corn (corn (Zea mays) [11]; [17]): 0
Plant response rating, Corn (corn (Zea mays) [11]; [18]): 0
Plant response rating (0 to 100), Corn (corn (Zea mays) [11]; [19]): 0
Plant response rating, Corn (corn (Zea mays) [11]; [20]): 0
Plant response rating, Soybean (soybean (Glycine max); [17]): 40
Plant response rating (0 to 100), Soybean (soybean (Glycine max); [19]): 0
Plant response rating, Soybean (soybean (Glycine max); [20]): 0
Plant response rating, Kochia (kochia (Kochia scoparia); [17]): 20
Plant response rating, Kochia (kochia (Kochia scoparia); [18]): 0
Plant response rating (0 to 100), Kochia (kochia (Kochia scoparia); [19]): 0
Plant response rating, Kochia (kochia (Kochia scoparia); [20]): 0
Plant response rating, Nutsedge [12, 17]: 70
Plant response rating, Nutsedge [12, 18]: 0
Plant response rating (0 to 100), Nutsedge [12, 19]: 0
Plant response rating, Nutsedge [12, 20]: 0
Plant response rating, Cupgrass, Woolly [13, 17]: 90
Plant response rating, Cupgrass, Woolly [13, 18]: 20
Plant response rating (0 to 100), Cupgrass, Woolly [13, 19]: 90
Plant response rating, Cupgrass, Woolly [13, 20]: 20
Plant response rating, Johnsongrass [14, 17]: 90
Plant response rating, Johnsongrass [14, 18]: 0
Plant response rating (0 to 100), Johnsongrass [14, 19]: 70
Plant response rating, Johnsongrass [14, 20]: 40
